Columns and labels:
[1] = tested on: PI3K-α (PIK3CA) in MDA-MB-453 cells; test: PI3K-alpha kinase (PIK3CA) activity in vitro cell based assay, MDA-MB-453 cells, AlphaLisa SureFire; conditions: Homo sapiens, MDA-MB-453, 3 h, 0% FBS, 3 hours treatment, relative IC50
In short: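 MDA-MB-453 cells in serum-free MEM with 1 μg/mL insulin treated 3 h with 10-point 1:3 compound dilutions, 0.3% DMSO. Lysates read by AlphaLisa SureFire; percent inhibition relative to DMSO (max) and 1 μM GDC-0032 (min), duplicate means fitted to 4-parameter logistic for relative IC50.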

[2] = target: T1, human full length PIK3KA H1047R mutant (p110α/p85α complex) (Homo sapiens, UniProt P42336, H1047R); test: PI3K-alpha kinase (PIK3CA) biochemical activity, H1047R mutant, ADP-Glo; conditions: PI3K-α (PIK3CA) biochemical, H1047R mutant, Soy PI lipid substrate
T1 construct: Recombinant, catalytically active human full length PIK3KA Wild-type and H1047R mutant were purchased as 1:1 complex; 6xHis (N); purchased EMD Millipore Sigma 14-792M
T1 sequence (P42336 whole entry H1047R): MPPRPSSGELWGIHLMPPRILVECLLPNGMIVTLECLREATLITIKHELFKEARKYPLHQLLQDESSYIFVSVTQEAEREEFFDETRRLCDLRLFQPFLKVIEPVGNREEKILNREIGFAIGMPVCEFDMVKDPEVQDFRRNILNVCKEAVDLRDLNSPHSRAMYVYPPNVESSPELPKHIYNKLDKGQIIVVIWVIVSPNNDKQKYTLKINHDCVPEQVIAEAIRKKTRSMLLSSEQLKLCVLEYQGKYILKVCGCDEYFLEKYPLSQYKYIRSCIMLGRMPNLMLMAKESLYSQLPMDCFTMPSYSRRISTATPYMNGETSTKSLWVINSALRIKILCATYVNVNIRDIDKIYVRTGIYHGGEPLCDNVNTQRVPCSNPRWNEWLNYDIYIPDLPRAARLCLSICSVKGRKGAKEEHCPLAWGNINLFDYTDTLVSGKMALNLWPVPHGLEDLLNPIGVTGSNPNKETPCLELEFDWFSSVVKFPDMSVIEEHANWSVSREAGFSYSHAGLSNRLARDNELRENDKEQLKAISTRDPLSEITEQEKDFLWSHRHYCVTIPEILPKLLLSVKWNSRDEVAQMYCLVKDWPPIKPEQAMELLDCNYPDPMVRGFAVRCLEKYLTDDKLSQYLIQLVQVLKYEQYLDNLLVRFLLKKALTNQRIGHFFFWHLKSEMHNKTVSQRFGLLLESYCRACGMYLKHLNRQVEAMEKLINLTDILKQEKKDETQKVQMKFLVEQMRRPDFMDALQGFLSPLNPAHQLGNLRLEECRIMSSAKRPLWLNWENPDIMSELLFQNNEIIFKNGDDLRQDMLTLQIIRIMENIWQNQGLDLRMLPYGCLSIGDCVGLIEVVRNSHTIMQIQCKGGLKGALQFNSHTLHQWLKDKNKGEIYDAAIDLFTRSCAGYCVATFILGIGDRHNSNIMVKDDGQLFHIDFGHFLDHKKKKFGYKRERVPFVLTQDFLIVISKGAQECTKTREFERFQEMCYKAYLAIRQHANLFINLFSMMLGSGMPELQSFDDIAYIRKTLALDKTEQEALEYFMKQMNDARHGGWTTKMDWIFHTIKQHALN
T1 sequence (P27986 whole entry partner): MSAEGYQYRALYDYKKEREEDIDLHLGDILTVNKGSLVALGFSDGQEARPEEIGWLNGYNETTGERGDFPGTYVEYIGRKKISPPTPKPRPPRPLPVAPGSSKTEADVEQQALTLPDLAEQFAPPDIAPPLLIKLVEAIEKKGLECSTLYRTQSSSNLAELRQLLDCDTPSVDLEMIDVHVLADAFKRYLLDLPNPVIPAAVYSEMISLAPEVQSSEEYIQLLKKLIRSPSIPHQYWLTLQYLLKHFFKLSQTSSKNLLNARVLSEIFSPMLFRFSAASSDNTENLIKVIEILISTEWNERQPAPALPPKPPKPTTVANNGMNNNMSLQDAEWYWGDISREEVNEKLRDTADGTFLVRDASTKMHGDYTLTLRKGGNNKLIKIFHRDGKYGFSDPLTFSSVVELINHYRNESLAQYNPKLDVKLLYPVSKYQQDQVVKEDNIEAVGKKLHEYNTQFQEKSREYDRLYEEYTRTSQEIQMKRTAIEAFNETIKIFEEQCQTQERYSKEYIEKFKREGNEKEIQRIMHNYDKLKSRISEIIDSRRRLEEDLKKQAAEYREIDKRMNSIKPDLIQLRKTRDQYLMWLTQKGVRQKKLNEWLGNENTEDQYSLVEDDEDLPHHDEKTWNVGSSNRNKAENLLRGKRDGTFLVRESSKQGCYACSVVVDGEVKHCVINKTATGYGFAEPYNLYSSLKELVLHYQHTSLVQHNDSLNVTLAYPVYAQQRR
In short: (§1)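 Full-length His-p110α/p85α complex, wild-type or H1047R, 1–5 nM, preincubated with compound 1 h at 27 °C in HEPES pH 7.4, 25 mM MgCl2, 0.01% Triton X-100, 1% DMSO. Reaction with 20 μM ATP and 50 μM PIP2diC8 or soy PI at 27 °C to ~10% ATP conversion; ADP-Glo luminescence. IC50 from 10-point four-parameter logistic fit.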

[3] = target: T2, human full length PIK3KA Wild-type (p110α/p85α complex) (Homo sapiens, UniProt P42336); test: PI3K-alpha kinase (PIK3CA) biochemical activity, wild-type, ADP-Glo; conditions: PI3K-α (PIK3CA) biochemical, Soy PI lipid substrate
T2 construct: Recombinant, catalytically active human full length PIK3KA Wild-type and H1047R mutant were purchased as 1:1 complex; 6xHis (N); purchased EMD Millipore Sigma 14-602M
In short: as §1

Row | SMILES | IC50 [1] | IC50 [2] | IC50 [3]
1 | COc1ncc(N[C@H](C)c2cc(C)cc3c(=O)c(C)c(-c4ccccc4)oc23)c(C(=O)O)n1 [Example 155, 2-Methoxy-5-[[(1R)-1-(3,6-dimethyl-4-oxo-2-phenyl-chromen-8-yl)ethyl]amino]pyrimidine-4-carboxylic acid 2,2,2-trifluoroacetic acid] | 100 to 500 nM | < 500 nM | 1000 to 5000 nM
2 | Cc1cc([C@@H](C)Nc2ccccc2C(=O)O)c2oc(-c3ccccc3)c(-c3cccnc3)c(=O)c2c1 [Example 156, 2-[[(1R)-1-[6-Methyl-4-oxo-2-phenyl-3-(3-pyridyl)chromen-8-yl]ethyl]amino]benzoic acid 2,2,2-trifluoroacetic acid] | 100 to 500 nM | 500 to 1000 nM | 1000 to 5000 nM
3 | Cc1cc([C@@H](C)Nc2ccccc2C(=O)O)c2oc(-c3ccc(-c4cn[nH]c4)cc3)c(C)c(=O)c2c1 [Example 162, 2-[[(1R)-1-[3,6-Dimethyl-4-oxo-2-[4-(1H-pyrazol-4-yl)phenyl]chromen-8-yl]ethyl]amino]benzoic acid] | < 50 nM | < 500 nM | 500 to 1000 nM
4 | Cc1cc([C@@H](C)Nc2ccccc2C(=O)O)c2oc(-c3ccc(-c4cn[nH]c4)cc3)cc(=O)c2c1 [Example 163, 2-[[(1R)-1-[6-Methyl-4-oxo-2-[4-(1H-pyrazol-4-yl)phenyl]chromen-8-yl]ethyl]amino]benzoic acid] | 50 to 100 nM | 500 to 1000 nM | 1000 to 5000 nM
5 | Cc1cc([C@@H](C)Nc2ccccc2C(=O)O)c2oc(-c3ccc(-c4cnn(C)c4)cc3)c(C)c(=O)c2c1 [Example 164, 2-[[(1R)-1-[3,6-Dimethyl-2-[4-(1-methylpyrazol-4-yl)phenyl]-4-oxo-chromen-8-yl]ethyl]amino]benzoic acid] | < 50 nM | < 500 nM | < 500 nM
6 | Cc1cc([C@@H](C)Nc2ccccc2C(=O)O)c2oc(-c3ccc(-c4c(C)n[nH]c4C)cc3)c(C)c(=O)c2c1 [Example 165, 2-[[(1R)-1-[2-[4-(3,5-Dimethyl-1H-pyrazol-4-yl)phenyl]-3,6-dimethyl-4-oxo-chromen-8-yl]ethyl]amino]benzoic acid] | < 50 nM | < 500 nM | 1000 to 5000 nM
7 | Cc1cc([C@@H](C)Nc2ccccc2C(=O)O)c2oc(-c3cccc(-c4cc[nH]n4)c3)c(C)c(=O)c2c1 [Example 166, 2-[[(1R)-1-[3,6-Dimethyl-4-oxo-2-[3-(1H-pyrazol-3-yl)phenyl]chromen-8-yl]ethyl]amino]benzoic acid] | < 50 nM | 500 to 1000 nM | 1000 to 5000 nM
8 | Cc1cc([C@@H](C)Nc2ccccc2C(=O)O)c2oc(-c3cccc(-c4cn[nH]c4)c3)c(C)c(=O)c2c1 [Example 167, 2-[[(1R)-1-[3,6-Dimethyl-4-oxo-2-[3-(1H-pyrazol-4-yl)phenyl]chromen-8-yl]ethyl]amino]benzoic acid] | < 50 nM | < 500 nM | 500 to 1000 nM
9 | Cc1cc([C@@H](C)Nc2ccccc2C(=O)O)c2oc(-c3ccc(-c4ccn[nH]4)cc3)c(C)c(=O)c2c1 [Example 168, 2-[[(1R)-1-[3,6-Dimethyl-4-oxo-2-[4-(1H-pyrazol-5-yl)phenyl]chromen-8-yl]ethyl]amino]benzoic acid] | < 50 nM | < 500 nM | 500 to 1000 nM
10 | Cc1cc([C@@H](C)Nc2ccccc2C(=O)O)c2oc(-c3ccccc3)c(NCCC(=O)O)c(=O)c2c1 [Example 171, 2-[[(1R)-1-[3-(2-Carboxyethylamino)-6-methyl-4-oxo-2-phenyl-chromen-8-yl]ethyl]amino]benzoic acid 2,2,2-trifluoroacetic acid] | > 500 nM | 500 to 1000 nM | > 10000 nM

Further lines, results first:

Row | IC50 [1] | IC50 [2] | IC50 [3] | SMILES
11 | < 50 nM | < 500 nM | 500 to 1000 nM | Cc1cc([C@@H](C)Nc2ccc(Cl)cc2C(=O)O)c2oc(-c3cccc(C#N)c3)c(C)c(=O)c2c1 [Example 144, 5-Chloro-2-[[(1R)-1-[2-(3-cyanophenyl)-3,6-dimethyl-4-oxo-chromen-8-yl]ethyl]amino]benzoic acid]
12 | < 50 nM | < 500 nM | 1000 to 5000 nM | Cc1cc([C@@H](C)Nc2ccc(Cl)cc2C(=O)O)c2oc(-c3cccc(F)c3)c(C)c(=O)c2c1 [Example 145, 5-Chloro-2-[[(1R)-1-[2-(3-fluorophenyl)-3,6-dimethyl-4-oxo-chromen-8-yl]ethyl]amino]benzoic acid]
13 | < 50 nM | 1000 to 5000 nM | 1000 to 5000 nM | Cc1cc([C@@H](C)Nc2ccc(Cl)cc2C(=O)O)c2oc(-c3ccc(F)c(F)c3)c(C)c(=O)c2c1 [Example 146, 5-Chloro-2-[[(1R)-1-[2-(3,4-difluorophenyl)-3,6-dimethyl-4-oxo-chromen-8-yl]ethyl]amino]benzoic acid]
14 | < 50 nM | 500 to 1000 nM | 1000 to 5000 nM | Cc1cc([C@@H](C)Nc2ccc(Cl)cc2C(=O)O)c2oc(-c3ccccc3F)c(C)c(=O)c2c1 [Example 147, 5-Chloro-2-[[(1R)-1-[2-(2-fluorophenyl)-3,6-dimethyl-4-oxo-chromen-8-yl]ethyl]amino]benzoic acid]
15 | < 50 nM | 500 to 1000 nM | 5000 to 10000 nM | Cc1cc([C@@H](C)Nc2ccc(C)nc2C(=O)O)c2oc(-c3ccccc3F)c(C)c(=O)c2c1 [Example 148, 3-[[(1R)-1-[2-(2-Fluorophenyl)-3,6-dimethyl-4-oxo-chromen-8-yl]ethyl]amino]-6-methyl-pyridine-2-carboxylic acid]
16 | < 50 nM | < 500 nM | 1000 to 5000 nM | COC(=O)c1ccc(-c2oc3c([C@@H](C)Nc4ccccc4C(=O)O)cc(C)cc3c(=O)c2C)cc1 [Example 149, 2-[[(1R)-1-[2-(4-Methoxycarbonylphenyl)-3,6-dimethyl-4-oxo-chromen-8-yl]ethyl]amino]benzoic acid]
17 | < 50 nM | < 500 nM | 1000 to 5000 nM | COC(=O)c1cccc(-c2oc3c([C@@H](C)Nc4ccccc4C(=O)O)cc(C)cc3c(=O)c2C)c1 [Example 150, 2-[[(1R)-1-[2-(3-Methoxycarbonylphenyl)-3,6-dimethyl-4-oxo-chromen-8-yl]ethyl]amino]benzoic acid]
18 | < 50 nM | < 500 nM | 1000 to 5000 nM | CNC(=O)c1ccc(-c2oc3c([C@@H](C)Nc4ccccc4C(=O)O)cc(C)cc3c(=O)c2C)cc1 [Example 151, 2-[[(1R)-1-[3,6-Dimethyl-2-[4-(methylcarbamoyl)phenyl]-4-oxo-chromen-8-yl]ethyl]amino]benzoic acid]
19 | < 50 nM | < 500 nM | > 10000 nM | CNC(=O)c1cccc(-c2oc3c([C@@H](C)Nc4ccccc4C(=O)O)cc(C)cc3c(=O)c2C)c1 [Example 152, 2-[[(1R)-1-[3,6-Dimethyl-2-[3-(methylcarbamoyl)phenyl]-4-oxo-chromen-8-yl]ethyl]amino]benzoic acid]
20 | < 50 nM | < 500 nM | 500 to 1000 nM | Cc1cc([C@@H](C)Nc2ccccc2C(=O)O)c2oc(-c3ccc(-c4c[nH]nc4C)cc3)c(C)c(=O)c2c1 [Example 161, 2-[[(1R)-1-[3,6-Dimethyl-2-[4-(3-methyl-1H-pyrazol-4-yl)phenyl]-4-oxo-chromen-8-yl]ethyl]amino]benzoic acid]

Source: patent US11873295B2, “Allosteric chromenone inhibitors of phosphoinositide 3-kinase (PI3K) for the treatment of disease” (Petra Pharma Corporation, priority 2021, dated 2024)
